According to patent publication US11629201B2, “PSMA-binding agents and uses thereof” (ITM Isotope Technologies Munich SE, priority 2017, dated 2023):

Tested on: PC-3 PIP/flu tumor-bearing mice
Assay: Biodistribution studies in PC-3 PIP/flu tumor-bearing mice
Conditions: for Tumor-to-blood / Tumor-to-kidney / Tumor-to-liver: PC-3 PIP tumor

O=C(O)CCC(NC(=O)NC(CCCCNC(=O)C(Cc1ccc2ccccc2c1)NC(=O)C1CCC(CNC(=O)C(CCCCNC(=O)CN2CCN(CC(=O)O)CCN(CC(=O)O)CCN(CC(=O)O)CC2)NC(=O)CCCCCCC(=O)NC(CCCCNC(=O)CCCc2ccc(I)cc2)C(=O)O)CC1)C(=O)O)C(=O)O (stereo not shown) [^177Lu-PSMA-ALB-04, metal not drawn]
Tumor-to-blood (1 h p.i.): 0.20 ± 0.02 | Tumor-to-kidney (1 h p.i.): 0.54 ± 0.09 | Tumor-to-liver (1 h p.i.): 0.33 ± 0.06 | Blood (24 h p.i.): 55.3 ± 3.10 % IA/g | Bone (24 h p.i.): 8.88 ± 0.19 % IA/g | Heart (24 h p.i.): 22.1 ± 3.70 % IA/g | Intestines (24 h p.i.): 8.13 ± 1.31 % IA/g | Kidneys (24 h p.i.): 41.5 ± 1.44 % IA/g | Liver (24 h p.i.): 17.6 ± 2.04 % IA/g | Lung (24 h p.i.): 40.1 ± 7.77 % IA/g | Muscle (24 h p.i.): 5.82 ± 1.62 % IA/g | PC-3 PIP Tumor (24 h p.i.): 82.8 ± 6.84 % IA/g | PC-3 flu Tumor (24 h p.i.): 14.0 ± 0.60 % IA/g | Salivary glands (24 h p.i.): 12.5 ± 0.42 % IA/g | Spleen (24 h p.i.): 13.6 ± 1.90 % IA/g | Stomach (24 h p.i.): 6.18 ± 0.95 % IA/g | Tumor-to-blood (24 h p.i.): 1.50 ± 0.11 | Tumor-to-kidney (24 h p.i.): 2.00 ± 0.11 | Tumor-to-liver (24 h p.i.): 4.76 ± 0.67 | Blood (48 h p.i.): 38.2 ± 1.48 % IA/g | Bone (48 h p.i.): 6.80 ± 0.67 % IA/g | Heart (48 h p.i.): 13.6 ± 0.36 % IA/g | Intestines (48 h p.i.): 7.27 ± 0.82 % IA/g | Kidneys (48 h p.i.): 38.2 ± 4.10 % IA/g | Liver (48 h p.i.): 13.1 ± 0.67 % IA/g | Lung (48 h p.i.): 24.6 ± 2.02 % IA/g | Muscle (48 h p.i.): 4.62 ± 0.38 % IA/g | PC-3 PIP Tumor (48 h p.i.): 93.2 ± 12.4 % IA/g | PC-3 flu Tumor (48 h p.i.): 12.6 ± 0.82 % IA/g | Salivary glands (48 h p.i.): 10.6 ± 0.42 % IA/g | Spleen (48 h p.i.): 14.0 ± 1.70 % IA/g | Stomach (48 h p.i.): 5.04 ± 0.35 % IA/g | Tumor-to-blood (48 h p.i.): 2.45 ± 0.41 | Tumor-to-kidney (48 h p.i.): 2.47 ± 0.50 | Tumor-to-liver (48 h p.i.): 7.16 ± 1.16 | Blood (96 h p.i.): 11.65 ± 1.22 % IA/g | Bone (96 h p.i.): 2.54 ± 0.31 % IA/g | Heart (96 h p.i.): 4.81 ± 0.29 % IA/g | Intestines (96 h p.i.): 2.36 ± 0.17 % IA/g | Kidneys (96 h p.i.): 15.3 ± 1.49 % IA/g | Liver (96 h p.i.): 4.67 ± 0.82 % IA/g | Lung (96 h p.i.): 9.96 ± 1.44 % IA/g | Muscle (96 h p.i.): 1.56 ± 0.56 % IA/g | PC-3 PIP Tumor (96 h p.i.): 61.4 ± 7.68 % IA/g | PC-3 flu Tumor (96 h p.i.): 5.63 ± 0.37 % IA/g | Salivary glands (96 h p.i.): 4.08 ± 0.44 % IA/g | Spleen (96 h p.i.): 6.76 ± 0.59 % IA/g | Stomach (96 h p.i.): 1.74 ± 0.11 % IA/g | Tumor-to-blood (96 h p.i.): 5.29 ± 0.74 | Tumor-to-kidney (96 h p.i.): 4.03 ± 0.56 | Tumor-to-liver (96 h p.i.): 13.4 ± 2.88 | Blood (192 h p.i.): 3.75 ± 1.49 % IA/g | Bone (192 h p.i.): 1.17 ± 0.61 % IA/g | Heart (192 h p.i.): 1.73 ± 0.70 % IA/g | Intestines (192 h p.i.): 0.67 ± 0.15 % IA/g | Kidneys (192 h p.i.): 8.82 ± 3.83 % IA/g | Liver (192 h p.i.): 2.45 ± 0.81 % IA/g | Lung (192 h p.i.): 4.10 ± 1.77 % IA/g | Muscle (192 h p.i.): 0.71 ± 0.54 % IA/g | PC-3 PIP Tumor (192 h p.i.): 57.6 ± 17.3 % IA/g | PC-3 flu Tumor (192 h p.i.): 3.31 ± 1.43 % IA/g | Salivary glands (192 h p.i.): 1.96 ± 0.73 % IA/g | Spleen (192 h p.i.): 5.22 ± 3.17 % IA/g | Stomach (192 h p.i.): 0.56 ± 0.19 % IA/g | Tumor-to-blood (192 h p.i.): 15.8 ± 3.55 | Tumor-to-kidney (192 h p.i.): 6.91 ± 2.24 | Tumor-to-liver (192 h p.i.): 23.9 ± 5.12
